In this experiment the test system is HCV genotype 1a replicon cells Htat2ANeo. Put plainly: 1a Replicon Assay (cell-based anti-NS5a ELISA). The conditions noted are these: Hepatitis C virus, 72 h. The method, boiled down:
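HCV 1a Htat2ANeo replicon cells (Et2AN control cells) exposed to compound for 72 h at 37° C without G418/blasticidin. NS5a quantified by cell-based ELISA (anti-NS5a, HRP/OPD, A490); IC50 from percentage reduction versus untreated control. Cytotoxicity TD50 by Cell Titre Blue fluorescence (ex 570/em 590 nm) versus DMSO controls.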
A general note: In antiviral work, replicon cells carry a viral genome segment that copies itself.

Setting [1] is: read-out: pIC50 1a Replicon (converted).

The structures appear in SMILES notation. Read-outs that look alike come from different tables or passages of the source.

The source of these data is patent US20100215618A1, “NOVEL COMPOUNDS - 644” (Arrow Therapeutics Limited, priority 2009, published 2010).

Turning to `CC(C)(C)OC(=O)N[C@@H](C(=O)N1CCC[C@H]1c1ncc(-c2ccc(-c3ccc(C(=O)Nc4ccc(CN5CCS(=O)(=O)CC5)cc4)cc3)cc2)[nH]1)c1ccccc1` [Example 2, Tert-butyl N-[(1R)-2-[(2S)-2-[5-[4-[4-[[4-[(1,1-dioxo-1,4-thiazinan-4-yl)methyl]phenyl]carbamoyl]phenyl]phenyl]-1H-imidazol-2-yl]pyrrolidin-1-yl]-2-oxo-1-phenyl-ethyl]carbamate], the IC50 is, setting by setting: (read-out: HCV IC50 Elisa 1a) 56 nM; under setting [1], 56.2 nM.

Take `COC(=O)N[C@H](C(=O)N1CCC[C@H]1c1ncc(-c2ccc(-c3ccc(C(=O)Nc4ccc(CN5CCS(=O)(=O)CC5)cc4)cc3)cc2)[nH]1)C(C)C` [Example 3, Methyl N-[(1S)-1-[(2S)-2-[5-[4-[4-[[4-[(1,1-dioxo-1,4-thiazinan-4-yl)methyl]phenyl]carbamoyl]phenyl]phenyl]-1H-imidazol-2-yl]pyrrolidine-1-carbonyl]-2-methyl-propyl]carbamate]: the IC50 reads like this: (read-out: HCV IC50 Elisa 1a) 6.46 nM; under setting [1], 6.46 nM.

For the molecule `COC(=O)N[C@H](C(=O)N1CCC[C@H]1c1ncc(-c2ccc(-c3ccc(C(=O)Nc4ccc(CN5CCS(=O)(=O)CC5)cc4)cc3)cc2)[nH]1)C(C)(C)C` [Example 5, Methyl N-[(1S)-1-[(2S)-2-[5-[4-[4-[[4-[(1,1-dioxo-1,4-thiazinan-4-yl)methyl]phenyl]carbamoyl]phenyl]phenyl]-1H-imidazol-2-yl]pyrrolidine-1-carbonyl]-2,2-dimethyl-propyl]carbamate], the IC50 was 33.1 nM (read-out: HCV IC50 Elisa 1a) and 33.1 nM under setting [1].

Turning to `COC(=O)N[C@H](C(=O)N1CCC[C@H]1c1ncc(-c2ccc(-c3ccc(C(=O)Nc4ccc(CN5CCS(=O)(=O)CC5)cc4)cc3)cc2)[nH]1)c1ccccc1` [Example 6, Methyl N-[(1S)-2-[(2S)-2-[5-[4-[4-[[4-[(1,1-dioxo-1,4-thiazinan-4-yl)methyl]phenyl]carbamoyl]phenyl]phenyl]-1H-imidazol-2-yl]pyrrolidin-1-yl]-2-oxo-1-phenyl-ethyl]carbamate], the IC50 is 33.3 nM (read-out: HCV IC50 Elisa 1a) and 33.1 nM under setting [1].

On to `COC(=O)N[C@@H](C(=O)N1CCC[C@H]1c1ncc(-c2ccc(-c3ccc(C(=O)Nc4ccc(CN5CCS(=O)(=O)CC5)cc4)cc3)cc2)[nH]1)c1ccccc1` [Example 7, Methyl N-[(1R)-2-[(2S)-2-[5-[4-[4-[[4-[(1,1-dioxo-1,4-thiazinan-4-yl)methyl]phenyl]carbamoyl]phenyl]phenyl]-1H-imidazol-2-yl]pyrrolidin-1-yl]-2-oxo-1-phenyl-ethyl]carbamate], for which the IC50 is 32 nM (read-out: HCV IC50 Elisa 1a) and 32.4 nM under setting [1].

For `CCN(CC)[C@@H](C(=O)N1CCC[C@H]1c1ncc(-c2ccc(-c3ccc(C(=O)Nc4ccc(CN5CCS(=O)(=O)CC5)cc4)cc3)cc2)[nH]1)c1ccccc1` [Example 8, 4-[4-[2-[(2S)-1-[(2R)-2-(diethylamino)-2-phenyl-acetyl]pyrrolidin-2-yl]-1H-imidazol-5-yl]phenyl]-N-[4-[(1,1-dioxo-1,4-thiazinan-4-yl)methyl]phenyl]benzamide], the IC50 runs as follows: (read-out: HCV IC50 Elisa 1a) 4.75 nM; under setting [1], 4.79 nM.

As to `CN(C)[C@@H](C(=O)N1CCC[C@H]1c1ncc(-c2ccc(-c3ccc(C(=O)Nc4ccc(CN5CCS(=O)(=O)CC5)cc4)cc3)cc2)[nH]1)c1ccccc1` [Example 9, 4-[4-[2-[(2S)-1-[(2R)-2-(dimethylamino)-2-phenyl-acetyl]pyrrolidin-2-yl]-1H-imidazol-5-yl]phenyl]-N-[4-[(1,1-dioxo-1,4-thiazinan-4-yl)methyl]phenyl]benzamide], the IC50 by setting is: (read-out: HCV IC50 Elisa 1a) 13.2 nM; under setting [1], 13.2 nM.

Regarding `COC(=O)N[C@@H](CC(C)C)C(=O)N1CCC[C@H]1c1ncc(-c2ccc(-c3ccc(C(=O)Nc4ccc(CN5CCS(=O)(=O)CC5)cc4)cc3)cc2)[nH]1` [Example 14, Methyl N-[(1S)-1-[(2S)-2-[5-[4-[4-[[4-[(1,1-dioxo-1,4-thiazinan-4-yl)methyl]phenyl]carbamoyl]phenyl]phenyl]-1H-imidazol-2-yl]pyrrolidine-1-carbonyl]-3-methyl-butyl]carbamate], the IC50 is, setting by setting: (read-out: HCV IC50 Elisa 1a) 15.7 nM; under setting [1], 15.8 nM.

Consider `CC[C@H](C)[C@H](NC(=O)OC)C(=O)N1CCC[C@H]1c1ncc(-c2ccc(-c3ccc(C(=O)Nc4ccc(CN5CCS(=O)(=O)CC5)cc4)cc3)cc2)[nH]1` [Example 16, Methyl N-[(1S,2S)-1-[(2S)-2-[5-[4-[4-[[4-[(1,1-dioxo-1,4-thiazinan-4-yl)methyl]phenyl]carbamoyl]phenyl]phenyl]-1H-imidazol-2-yl]pyrrolidine-1-carbonyl]-2-methyl-butyl]carbamate], for which the IC50 is, setting by setting: (read-out: HCV IC50 Elisa 1a) 8.39 nM; under setting [1], 8.32 nM.

For the molecule `COC(=O)N[C@H](C(=O)N1CCC[C@@H]1c1ncc(-c2ccc(-c3ccc(C(=O)Nc4ccc(CN5CCS(=O)(=O)CC5)cc4)cc3)cc2)[nH]1)C(C)C` [Example 20, Methyl N-[(1S)-1-[(2R)-2-[5-[4-[4-[[4-[(1,1-dioxo-1,4-thiazinan-4-yl)methyl]phenyl]carbamoyl]phenyl]phenyl]-1H-imidazol-2-yl]pyrrolidine-1-carbonyl]-2-methyl-propyl]carbamate], the IC50 (read-out: HCV IC50 Elisa 1a) was found to be 1470 nM and the IC50 under setting [1] was 1480 nM.

Turning to `CCCS(=O)(=O)N1CCN(Cc2ccc(NC(=O)c3ccc(-c4ccc(-c5cnc([C@@H]6CCCN6C(=O)[C@@H](NC(=O)OC)C(C)C)[nH]5)cc4)cc3)cc2)CC1` [Example 40, Methyl N-[(1S)-2-methyl-1-[(2S)-2-[5-[4-[4-[[4-[(4-propylsulfonylpiperazin-1-yl)methyl]phenyl]carbamoyl]phenyl]phenyl]-1H-imidazol-2-yl]pyrrolidine-1-carbonyl]propyl]carbamate], the IC50 was 42.6 nM (read-out: HCV IC50 Elisa 1a) and 42.7 nM under setting [1].

As for `COC(=O)N[C@H](C(=O)N1CCOC[C@H]1c1ncc(-c2ccc(-c3ccc(C(=O)Nc4ccc(CN5CCS(=O)(=O)CC5)cc4)cc3)cc2)[nH]1)c1ccccc1` [Example 47, Methyl N-[(1S)-2-[(3R)-3-[5-[4-[4-[[4-[(1,1-dioxo-1,4-thiazinan-4-yl)methyl]phenyl]carbamoyl]phenyl]phenyl]-1H-imidazol-2-yl]morpholin-4-yl]-2-oxo-1-phenyl-ethyl]carbamate], the IC50 is, setting by setting: (read-out: HCV IC50 Elisa 1a) 73.3 nM; under setting [1], 74.1 nM.

On to `COC(=O)N[C@H](C(=O)N1CCC[C@H]1c1ncc(-c2ccc(-c3ccc(C(=O)Nc4ccc(CN5CCS(=O)(=O)CC5)cc4)cc3)c(C)c2)[nH]1)C(C)C` [Example 54, Methyl N-[(1S)-1-[(2S)-2-[5-[4-[4-[[4-[(1,1-dioxo-1,4-thiazinan-4-yl)methyl]phenyl]carbamoyl]phenyl]-3-methyl-phenyl]-1H-imidazol-2-yl]pyrrolidine-1-carbonyl]-2-methyl-propyl]carbamate], for which the IC50 is 9.38 nM (read-out: HCV IC50 Elisa 1a) and 9.33 nM under setting [1].
